Legend:
integrin α4β1 = target: T1, integrin α4β1 (Homo sapiens, UniProt P05556+P13612); assay: VCAM antagonist activity (VCAM-1/α4β1 binding assay); format: cell-based; details: Jurkat cells binding to VCAM-1; read-out: VCAM antagonistic activity (IC50) α4β1
T1 construct: cell strain Jurkat (ATCC TIB-152) of human T cells, known to express integrin α4β1; host or cells: Jurkat (human T cell line)
Summary of the method: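 Plates coated overnight at 4° C with recombinant human VCAM-1 (500 ng/ml, pH 9.6) and blocked. Calcein-AM-labelled Jurkat cells (α4β1) added with compound in HEPES/DMEM/0.1% BSA, 30 min at room temperature; unbound cells shaken off, bound fluorescence read at 485/535 nm. IC50 from binding relative to compound-free wells.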

integrin α4β7 = target: T2, integrin α4β7 (Homo sapiens, UniProt P13612+P26010); assay: VCAM antagonistic activity (VCAM-1/α4β7 binding assay); format: cell-based; details: RPMI-8866 cells binding to VCAM-1; read-out: VCAM antagonistic activity (IC50) α4β7
T2 construct: lymphoma cell strain RPMI-8866 of human B cells, known to express integrin α4β7; endogenous in cells; host or cells: RPMI-8866 (human B lymphoma cell line)
T2 sequence (P13612 34-1032): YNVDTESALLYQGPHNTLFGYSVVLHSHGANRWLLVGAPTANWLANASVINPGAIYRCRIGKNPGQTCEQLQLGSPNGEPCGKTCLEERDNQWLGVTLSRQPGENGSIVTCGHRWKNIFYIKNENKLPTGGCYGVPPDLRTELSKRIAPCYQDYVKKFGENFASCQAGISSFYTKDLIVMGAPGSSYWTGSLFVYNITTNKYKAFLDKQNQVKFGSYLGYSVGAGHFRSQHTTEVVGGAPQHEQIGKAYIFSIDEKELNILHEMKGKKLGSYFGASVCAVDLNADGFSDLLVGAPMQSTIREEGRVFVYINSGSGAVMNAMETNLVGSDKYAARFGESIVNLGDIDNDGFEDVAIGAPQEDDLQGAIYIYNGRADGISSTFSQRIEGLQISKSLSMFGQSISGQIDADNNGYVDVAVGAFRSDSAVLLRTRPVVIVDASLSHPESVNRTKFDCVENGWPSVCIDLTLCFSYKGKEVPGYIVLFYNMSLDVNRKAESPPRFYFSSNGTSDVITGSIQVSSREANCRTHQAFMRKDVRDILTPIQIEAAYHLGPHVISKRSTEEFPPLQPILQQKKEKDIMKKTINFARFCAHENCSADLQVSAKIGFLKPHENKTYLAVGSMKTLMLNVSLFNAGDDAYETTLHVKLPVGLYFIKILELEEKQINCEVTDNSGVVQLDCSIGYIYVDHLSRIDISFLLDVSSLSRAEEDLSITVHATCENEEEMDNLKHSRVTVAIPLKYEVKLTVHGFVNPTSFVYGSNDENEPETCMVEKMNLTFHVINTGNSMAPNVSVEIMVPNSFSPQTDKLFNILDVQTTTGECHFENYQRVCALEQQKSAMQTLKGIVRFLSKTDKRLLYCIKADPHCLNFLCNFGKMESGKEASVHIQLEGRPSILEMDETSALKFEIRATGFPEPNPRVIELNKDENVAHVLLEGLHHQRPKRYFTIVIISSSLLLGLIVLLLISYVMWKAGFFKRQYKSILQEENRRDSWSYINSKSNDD
T2 sequence (P26010 20-798): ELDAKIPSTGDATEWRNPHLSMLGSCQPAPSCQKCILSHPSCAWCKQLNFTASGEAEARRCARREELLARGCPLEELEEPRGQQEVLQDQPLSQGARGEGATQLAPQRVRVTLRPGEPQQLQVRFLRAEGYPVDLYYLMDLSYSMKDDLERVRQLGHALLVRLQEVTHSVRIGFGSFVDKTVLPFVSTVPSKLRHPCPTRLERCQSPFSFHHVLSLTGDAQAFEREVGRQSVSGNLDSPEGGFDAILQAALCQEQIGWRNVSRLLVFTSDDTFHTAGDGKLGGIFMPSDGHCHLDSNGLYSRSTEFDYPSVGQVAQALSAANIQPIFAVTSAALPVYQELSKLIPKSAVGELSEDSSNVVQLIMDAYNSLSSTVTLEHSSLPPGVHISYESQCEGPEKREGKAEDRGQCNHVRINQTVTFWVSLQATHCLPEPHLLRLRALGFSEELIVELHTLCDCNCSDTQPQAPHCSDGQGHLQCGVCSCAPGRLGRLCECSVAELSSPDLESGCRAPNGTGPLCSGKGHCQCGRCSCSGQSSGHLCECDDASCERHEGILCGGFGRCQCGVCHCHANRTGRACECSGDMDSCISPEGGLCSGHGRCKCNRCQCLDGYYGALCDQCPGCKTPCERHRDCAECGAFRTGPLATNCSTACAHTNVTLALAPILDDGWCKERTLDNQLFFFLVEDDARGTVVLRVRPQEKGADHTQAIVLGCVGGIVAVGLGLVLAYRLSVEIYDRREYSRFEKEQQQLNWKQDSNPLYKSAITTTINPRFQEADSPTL
Summary of the method: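 Calcein-AM-labelled human B-lymphoma RPMI-8866 cells bound to plate-coated recombinant human VCAM-1 in HEPES/DMEM/0.1% BSA with 4 mM MnCl2, with compound, 30 min at room temperature. Unbound cells removed by shaking; bound-cell fluorescence (ex 485/em 535 nm) versus compound-free wells gave IC50, binned.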

T1 sequence (P05556 21-798, one chain of several): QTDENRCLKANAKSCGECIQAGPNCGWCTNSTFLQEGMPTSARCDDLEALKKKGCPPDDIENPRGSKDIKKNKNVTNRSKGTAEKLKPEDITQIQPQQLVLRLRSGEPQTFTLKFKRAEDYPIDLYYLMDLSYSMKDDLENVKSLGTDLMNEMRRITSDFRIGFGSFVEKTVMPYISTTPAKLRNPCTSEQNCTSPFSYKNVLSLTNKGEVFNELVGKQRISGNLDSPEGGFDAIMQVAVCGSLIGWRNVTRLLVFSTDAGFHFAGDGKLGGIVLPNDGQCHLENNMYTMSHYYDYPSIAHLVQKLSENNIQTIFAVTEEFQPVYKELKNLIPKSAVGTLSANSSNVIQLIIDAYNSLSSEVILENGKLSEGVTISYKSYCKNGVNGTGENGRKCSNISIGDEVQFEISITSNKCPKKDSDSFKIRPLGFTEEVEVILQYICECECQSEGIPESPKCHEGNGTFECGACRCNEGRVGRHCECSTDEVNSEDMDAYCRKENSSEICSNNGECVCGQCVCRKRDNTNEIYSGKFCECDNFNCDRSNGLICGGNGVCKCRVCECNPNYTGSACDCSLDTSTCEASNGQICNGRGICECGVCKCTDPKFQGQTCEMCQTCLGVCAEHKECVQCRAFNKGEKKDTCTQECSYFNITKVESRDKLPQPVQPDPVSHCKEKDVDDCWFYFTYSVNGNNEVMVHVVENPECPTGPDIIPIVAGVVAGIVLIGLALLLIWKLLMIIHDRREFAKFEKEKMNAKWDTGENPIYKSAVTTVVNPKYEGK

Compound | IC50 (integrin α4β1) [µM] | IC50 (integrin α4β7) [µM]
CCC(CC)(C(=O)N[C@@H](Cc1ccc(NC(=O)c2c(F)cccc2C(F)(F)F)cc1)C(=O)O)C(=O)N1CCCC1 [Example 92, N-(2-pyrrolidine-1-ylcarbonyl-2-ethyl-butanoyl)-4-({[2-fluoro-6-(trifluoromethyl)phenyl]carbonyl}amino)-L-phenylalanine] | 0.02 to 0.1 | < 0.02
CCC(CC)(C(=O)N[C@@H](Cc1ccc(NC(=O)c2snnc2-c2ccccc2)cc1)C(=O)O)C(=O)N1CCCC1 [Example 93] | 0.1 to 2 | < 0.02
CCC(CC)(C(=O)N[C@@H](Cc1ccc(NC(=O)c2nc(SC)ncc2Cl)cc1)C(=O)O)C(=O)N1CCCC1 [Example 94, N-[2-(pyrrolidine-1-ylcarbonyl)-2-ethyl-butanoyl]-4-({[5-chloro-2-(methylthio)pyrimidine-4-yl]carbonyl}amino)-L-phenylalanine] | 0.02 to 0.1 | < 0.02
CCC(CC)(C(=O)N[C@@H](Cc1ccc(NC(=O)c2cc(F)c(F)cc2Cl)cc1)C(=O)O)C(=O)N1CCCC1 [Example 95] | 0.02 to 0.1 | < 0.02
CCC(CC)(C(=O)N[C@@H](Cc1ccc(NC(=O)c2cc(Br)ccc2Cl)cc1)C(=O)O)C(=O)N1CCCC1 [Example 96] | 0.02 to 0.1 | < 0.02
CCC(CC)(C(=O)N[C@@H](Cc1ccc(NC(=O)c2ccccc2[N+](=O)[O-])cc1)C(=O)O)C(=O)N1CCCC1 [Example 97] | 0.02 to 0.1 | < 0.02
CCC(CC)(C(=O)N[C@@H](Cc1ccc(NC(=O)c2cc(Br)ccc2Br)cc1)C(=O)O)C(=O)N1CCCC1 [Example 98] | 0.02 to 0.1 | < 0.02
CCC(CC)(C(=O)N[C@@H](Cc1ccc(NC(=O)c2cc(OC)ccc2Br)cc1)C(=O)O)C(=O)N1CCCC1 [Example 99] | 0.02 to 0.1 | 0.02 to 0.1
CCC(CC)(C(=O)N[C@@H](Cc1ccc(-n2c(=O)c3ccccc3n(Cc3ccc4ccccc4c3)c2=O)cc1)C(=O)O)C(=O)N1CCCC1 [Example 100] | 0.1 to 2 | 0.02 to 0.1

Continued, values first:

IC50 (integrin α4β1) [µM] | IC50 (integrin α4β7) [µM] | Compound
0.1 to 2 | 0.02 to 0.1 | CCC(CC)(C(=O)N[C@@H](Cc1ccc(-n2c(=O)c3ccccc3n(CC=Cc3ccccc3)c2=O)cc1)C(=O)O)C(=O)N1CCCC1 [Example 101]
0.1 to 2 | < 0.02 | C#CCn1c(=O)n(-c2ccc(C[C@H](NC(=O)C(CC)(CC)C(=O)N3CCCC3)C(=O)O)cc2)c(=O)c2ccccc21 [Example 102]
0.1 to 2 | 0.02 to 0.1 | CCC(CC)(C(=O)N[C@@H](Cc1ccc(-n2c(=O)c3ccccc3n(CC(=O)OC)c2=O)cc1)C(=O)O)C(=O)N1CCCC1 [Example 103]
0.1 to 2 | 0.02 to 0.1 | CCC(CC)(C(=O)N[C@@H](Cc1ccc(-c2c(OC)cccc2OC)cc1)C(=O)O)C(=O)N(C)C [Example 104]
0.1 to 2 | 0.02 to 0.1 | COc1cccc(OC)c1-c1ccc(C[C@H](NC(=O)C(C)(C)C(=O)N(C)C)C(=O)O)cc1 [Example 105, N-[3-(dimethylamino)-2,2-dimethyl-3-oxopropanoyl]-4-(2,6-dimethoxyphenyl)-L-phenylalanine]
0.1 to 2 | 0.1 to 2 | O=CN1CCN(C(=O)C2(C(=O)N[C@@H](Cc3ccc(OCc4c(Cl)cccc4Cl)cc3)C(=O)O)CCC2)CC1 [Example 463]
0.1 to 2 | 0.02 to 0.1 | CCC(CC)(C(=O)N[C@@H](Cc1ccc(OCc2c(Cl)cccc2Cl)cc1)C(=O)O)C(=O)N1CCN(C(C)=O)CC1 [Example 464]
0.02 to 0.1 | < 0.02 | CCC(CC)(C(=O)NC(Cc1ccc(OCc2c(Cl)cccc2Cl)cc1)C(=O)O)C(=O)N1CC2CC1CN2C(C)=O (centres unmarked) [Example 466]
0.1 to 2 | < 0.02 | O=C(O)[C@H](Cc1ccc(OCc2c(Cl)cccc2Cl)cc1)NC(=O)C1(C(=O)N2CC[C@@H](O)C2)CCOCC1 [Example 467]
0.1 to 2 | < 0.02 | CN(C)C(=O)C1(C(=O)N[C@@H](Cc2ccc(OCc3c(Cl)cccc3Cl)cc2)C(=O)O)CCOCC1 [Example 468]

— patent publication US7160874B2, “Phenylalanine derivatives” (Ajinomoto Co., Inc., priority 1999, dated 2007)
